According to ChEMBL document CHEMBL4118137, “Design, synthesis and antineoplastic activity of novel hybrids of podophyllotoxin and indirubin against human leukaemia cancer cells as multifunctional anti-MDR agents” (Bioorg Med Chem Lett, 2018):
Active and inactive are the calls of the source. The calls are words filed in the database; no cut-off is given here.

Assays:
HL-60 = assay: Cytotoxicity against human HL60 cells; format: functional, cell-based
K562 = assay: Antiproliferative activity against human K562 cells after 72 hrs by CCK8 assay; format: functional, cell-based; details: K562, 72 h
K562/VCR [1] = assay: Antiproliferative activity against human K562/VCR cells after 72 hrs by CCK8 assay; format: functional, cell-based
[2] = Resistance factor, ratio of IC50 for human K562/VCR cells to IC50 for human K562 cells; format: functional
K562/VCR [3] = assay: Reduction in mitochondrial membrane potential in human K562/VCR cells at 0.1 uM after 48 hrs by JC1 probe-based flow cytometric method (reference value: 2.65%); format: functional; design: scale not given: the % may be the effect or the level left
[4] = target: c-Jun N-terminal kinase, JNK (Homo sapiens) (UniProt P45983+P53779+P45984); assay: Induction of JNK phosphorylation in human K562/VCR cells at 0.05 uM after 48 hrs by Western blot method relative to beta-actin; format: cell-based
K562/VCR [5] = assay: Induction of autophagy in human K562/VCR cells assessed as upregulation of beclin-1 expression at 0.05 uM after 48 hrs by Western blot method relative to beta-actin; format: functional
K562/VCR [6] = assay: Induction of apoptosis in human K562/VCR cells assessed as upregulation of cleaved PARP expression at 0.05 uM after 48 hrs by Western blot method relative to beta-actin; format: functional
K562/VCR [7] = assay: Cell cycle arrest in human K562/VCR cells assessed as accumulation at G2 phase at 0.05 uM after 48 hrs by propidium iodide staining-based flow cytometric method (reference value: 7.78%); format: functional
K562/VCR [8] = assay: Induction of apoptosis in human K562/VCR cells assessed as downregulation of CDK2 expression at 0.05 uM after 48 hrs by Western blot method relative to beta-actin; format: functional
K562/VCR [9] = assay: Induction of apoptosis in human K562/VCR cells assessed as late apoptotic cells at 0.05 uM after 48 hrs by annexin-V-FITC/propidium iodide staining-based flow cytometric method (reference value: 1.90%); format: functional
K562/VCR [10] = assay: Induction of apoptosis in human K562/VCR cells assessed as downregulation of CDK1 expression at 0.05 uM after 48 hrs by Western blot method relative to beta-actin; format: functional
K562/VCR [11] = assay: Induction of autophagy in human K562/VCR cells assessed as upregulation of LC3-2 expression at 0.05 uM after 48 hrs by Western blot method relative to beta-actin; format: functional
Homo sapiens = organism: Homo sapiens; assay: Inhibition of alpha-tubulin polymerization in human K562/VCR cells assessed as disruption of microtubule organization at 0.05 uM after 24 hrs by DAPI staining-based immunofluorescence assay; format: cell-based
K562/VCR [12] = assay: Cell cycle arrest in human K562/VCR cells assessed as accumulation at G1 phase at 0.05 uM after 48 hrs by propidium iodide staining-based flow cytometric method (reference value: 46.20%); format: functional
K562/VCR [13] = assay: Induction of reactive oxygen species formation in human K562/VCR cells at 0.05 uM after 24 hrs by DCFH-DA staining-based flow cytometric method (reference value: 0.41%); format: functional
[14] = target: RAC-alpha serine/threonine-protein kinase (Homo sapiens) (UniProt P31749); assay: Inhibition of AKT phosphorylation in human K562/VCR cells at 0.05 uM after 48 hrs by Western blot method relative to beta-actin; format: cell-based
RAC-alpha serine/threonine-protein kinase (Homo sapiens), sequence (P31749 whole entry): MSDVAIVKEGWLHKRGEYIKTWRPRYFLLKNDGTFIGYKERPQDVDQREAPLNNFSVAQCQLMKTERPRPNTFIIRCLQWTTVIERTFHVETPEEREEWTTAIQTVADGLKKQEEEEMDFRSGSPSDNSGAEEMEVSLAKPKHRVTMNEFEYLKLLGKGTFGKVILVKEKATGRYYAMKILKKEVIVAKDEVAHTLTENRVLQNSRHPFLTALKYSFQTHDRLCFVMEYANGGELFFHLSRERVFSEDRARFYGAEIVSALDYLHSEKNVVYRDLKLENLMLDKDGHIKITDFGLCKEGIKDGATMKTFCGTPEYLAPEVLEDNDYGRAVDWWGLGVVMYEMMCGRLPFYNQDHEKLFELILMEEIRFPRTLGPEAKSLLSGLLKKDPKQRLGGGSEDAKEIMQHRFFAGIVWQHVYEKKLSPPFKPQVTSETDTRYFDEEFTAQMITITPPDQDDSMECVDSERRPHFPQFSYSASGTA

K562/VCR [15] = assay: Induction of apoptosis in human K562/VCR cells assessed as necrotic cells at 0.05 uM after 48 hrs by annexin-V-FITC/propidium iodide staining-based flow cytometric method (reference value: 0.15%); format: functional
K562/VCR [16] = assay: Induction of apoptosis in human K562/VCR cells assessed as viable cells at 0.05 uM after 48 hrs by annexin-V-FITC/propidium iodide staining-based flow cytometric method (reference value: 91.05%); format: functional; details: read-out: Activity
K562/VCR [17] = assay: Downregulation of P-gp expression in human K562/VCR cells at 0.05 uM after 48 hrs by Western blot method relative to beta-actin; format: functional
K562/VCR [18] = assay: Cell cycle arrest in human K562/VCR cells assessed as accumulation at S phase at 0.05 uM after 48 hrs by propidium iodide staining-based flow cytometric method (reference value: 46.02%); format: functional
K562/VCR [19] = assay: Downregulation of MRP-1 expression in human K562/VCR cells at 0.05 uM after 48 hrs by Western blot method relative to beta-actin; format: functional
K562/VCR [20] = assay: Induction of apoptosis in human K562/VCR cells assessed as early apoptotic cells at 0.05 uM after 48 hrs by annexin-V-FITC/propidium iodide staining-based flow cytometric method (reference value: 6.90%); format: functional

CN(C)CCN1C(=O)/C(=C2\Nc3ccccc3C2=O)c2ccccc21
IC50 (HL-60): 3.56 µM

CC[C@]1(O)C[C@H]2CN(CCc3c([nH]c4ccccc34)[C@@](C(=O)OC)(c3cc4c(cc3OC)N(C=O)[C@H]3[C@@](O)(C(=O)OC)[C@H](OC(C)=O)[C@]5(CC)C=CCN6CC[C@]43[C@@H]65)C2)C1 [VINCRISTINE]
IC50 (K562): 0.178 µM | IC50 (K562/VCR [1]): 4.74 µM | Ratio IC50 [2]: 26.61

COc1cc([C@@H]2c3cc4c(cc3[C@@H](O[C@@H]3O[C@@H]5CO[C@@H](C)O[C@H]5[C@H](O)[C@H]3O)[C@H]3COC(=O)[C@H]23)OCO4)cc(OC)c1O [ETOPOSIDE]
IC50 (K562): 0.764 µM | IC50 (K562/VCR [1]): 11.8 µM | Ratio IC50 [2]: 15.49

COc1cc([C@@H]2c3cc4c(cc3[C@H](O)[C@H]3COC(=O)[C@H]23)OCO4)cc(OC)c1OC [PODOFILOX]
Activity (K562/VCR [3]): 52.5% | fold change (FC) [4]: 1.04 | IC50 (K562): 0.025 µM | fold change (FC) (K562/VCR [5]): 0.78 | fold change (FC) (K562/VCR [6]): 0.61 | Activity (K562/VCR [7]): 59.28% | fold change (FC) (K562/VCR [8]): 0.37 | IC50 (K562/VCR [1]): 0.05 µM | Activity (K562/VCR [9]): 23.21% | fold change (FC) (K562/VCR [10]): 0.27 | fold change (FC) (K562/VCR [11]): 0.65 | inhibition (Homo sapiens): Active | Ratio IC50 [2]: 2 | Activity (K562/VCR [12]): 17.81% | Activity (K562/VCR [13]): 45.54% | fold change (FC) [14]: 0.33 | Activity (K562/VCR [15]): 0.08% | viability at 0.05 µM (K562/VCR [16]): 48.6% | fold change (FC) (K562/VCR [17]): 0.27 | Activity (K562/VCR [18]): 22.9% | fold change (FC) (K562/VCR [19]): 0.22 | Activity (K562/VCR [20]): 28.1%

COc1cc([C@@H]2c3cc4c(cc3[C@H](OC(=O)CCN3C(=O)/C(=C5\Nc6ccccc6C5=O)c5ccccc53)[C@H]3COC(=O)[C@H]23)OCO4)cc(OC)c1OC
IC50 (K562): 1.3 µM | IC50 (K562/VCR [1]): 2.14 µM | Ratio IC50 [2]: 1.64
